The source of these data is ChEMBL document CHEMBL5096161, “Medulloblastoma drugs in development: Current leads, trials and drawbacks” (Eur J Med Chem, 2021).

Data set [1] in a line: Inhibition of Wnt/beta-catenin transactivation signalling in Wnt3a stimulated human HEK 293 STF cells harbouring TCF/LEF1 luciferase reporter gene assessed as reduction in luciferase activity by TOPFlash luciferase reporter assay. Format: cell-based.
The target of data set [2] is Casein kinase I isoform alpha (Homo sapiens, UniProt P48729). As to the kind of experiment: Binding affinity to CK1alpha (unknown origin) using casein as substrate by fluorescence based analysis.
The nature of data set [3]: Inhibition of hedgehog signalling in mouse Shh Light II cells assessed as luciferase activity. Format: cell-based.
The subject of data set [4] is Daoy. As to the kind of experiment: Antiproliferative activity against human Daoy cells assessed as inhibition of cell proliferation incubated for 72 hrs by MTS assay. The class given is functional, cell-based.
A short description of data set [5]: Antiproliferative activity against human UW228 cells assessed as inhibition of cell proliferation incubated for 72 hrs by MTS assay. The class given is functional, cell-based. The conditions noted are these: UW228, 72 h.
Data set [6] has as its system Daoy. Kind of data set: Antiproliferative activity against human Daoy cells assessed as reduction in cell viability by MTT assay. The class given is functional, cell-based.
Data set [7] can be described thus: Antiproliferative activity against human Med1 cells assessed as reduction in cell viability. Format: functional, cell-based.
Data set [8] in a line: Antiproliferative activity against human Medulloblastoma cells expressing wild type SMO assessed as reduction in cell viability. Format: functional, cell-based.
Data set [9] is described as follows: Inhibition of hedgehog signalling in mouse Shh Light II cells co-transfected with Gli firefly and Renilla-luciferase assessed as reduction in SAG-induced Gli luciferase activity incubated for 24 hrs by dual luciferase reporter assay. Format: cell-based.
For data set [10], the target named is T1, Protein smoothened (Homo sapiens, UniProt Q99835). As to the kind of experiment: Binding affinity to human SMO (181 to 787 residues) expressed in human HEK293 cells assessed as radioactivity incubated for 2 hrs in presence of H3-labeled smo antagonist by ligand-displacement assay. The class given is cell-based.
The nature of data set [11]: Inhibition of Shh-induced hedgehog signalling pathway in mouse MEF cells expressing Gli-Luc reporter gene assessed as reduction in Gli1 transcription activity incubated for 48 hrs in presence of recombinant mouse shh stimulation by Bright-Glo luciferase Assay.
The subject of data set [12] is D283 Med. As to the kind of experiment: Antiproliferative activity against human D283 Med cells assessed as inhibition of cell proliferation incubated for 48 hrs by MTS assay. The class given is functional, cell-based.
A short description of data set [13]: Inhibition of hedgehog signalling in mouse Shh Light II cells co-transfected with Gli firefly luciferase assessed as inhibition of Gli luciferase expression measured after 30 hrs by luciferase reporter assay. Format: cell-based.
A short description of data set [14]: Antiproliferative activity against human Medulloblastoma cells expressing MYC and wild type Gfi1 assessed as reduction in cell viability incubated for 48 hrs by Cell TiterGlo luminescent assay. The class given is functional, cell-based.
A short description of data set [15]: Half life in CD-1 mouse plasma at 10 mg/kg, po administered as single dose. Format: ADME, organism-based.
Data set [16] concerns the target T1, Protein smoothened. As to the kind of experiment: Inhibition of endogenous human Smo overexpressed in mouse C3H 10T1/2 cells cotransfected with Gli reporter gene assessed as Gli luciferase activity by dual luciferase assay. Format: functional, cell-based.
Data set [17] deals with Protein smoothened (Mus musculus, UniProt P56726). Kind of data set: Inhibition of endogenous mouse Smo overexpressed in mouse C3H 10T1/2 cells cotransfected with Gli reporter gene assessed as Gli luciferase activity by dual luciferase assay. Format: functional, cell-based.
Data set [18] in a line: Prodrug conversion in ICR mouse brain assessed as Cmax of PF403 metabolite at 10 mg/kg, po and measured after 5 mins by LC-MS/MS analysis. Format: ADME, organism-based. Also noted: dose 10 mg/kg, time 5 min, route po. The note with it: in vivo.
Data set [19] is described as follows: Inhibition of hedgehog signalling in mouse Shh Light II cells transfected with Gli luciferase reporter gene assessed as Gli luciferase activity assessed as luciferase activity by luciferase assay. Format: cell-based.
A short description of data set [20]: Antiproliferative activity against neonatally irradiated Ptch1-/+ mouse medulloblastoma cells assessed as inhibition of cell proliferation. The conditions noted are these: light or radiation study. The class given is functional, cell-based.
A short description of data set [21]: Ratio of AUC in brain to plasma of C57BL/6 mouse at 2 mg/kg, po and measured after 24 hrs by LC/MS-MS analysis. The class given is ADME, organism-based. The conditions noted are these: read-out: Ratio AUC.
Data set [22] in a line: Inhibition of Hedgehog signaling in mouse NIH3T3 cells expressing GRE-Luc reporter gene assessed luciferase activity incubated for 48 hrs in presence of SAG by Bright-Glo luciferase assay. Format: cell-based.
A short description of data set [23]: Inhibition of hedge hog pathway in mouse Sufu-KO-LIGHT cells expressing firefly luciferase reporter gene assessed as inhibition of Gli transcription incubated for 16 hrs by Bright-Glo luciferase assay. The class given is cell-based.

T1 sequence (Q99835 whole entry, the tested form may be a part): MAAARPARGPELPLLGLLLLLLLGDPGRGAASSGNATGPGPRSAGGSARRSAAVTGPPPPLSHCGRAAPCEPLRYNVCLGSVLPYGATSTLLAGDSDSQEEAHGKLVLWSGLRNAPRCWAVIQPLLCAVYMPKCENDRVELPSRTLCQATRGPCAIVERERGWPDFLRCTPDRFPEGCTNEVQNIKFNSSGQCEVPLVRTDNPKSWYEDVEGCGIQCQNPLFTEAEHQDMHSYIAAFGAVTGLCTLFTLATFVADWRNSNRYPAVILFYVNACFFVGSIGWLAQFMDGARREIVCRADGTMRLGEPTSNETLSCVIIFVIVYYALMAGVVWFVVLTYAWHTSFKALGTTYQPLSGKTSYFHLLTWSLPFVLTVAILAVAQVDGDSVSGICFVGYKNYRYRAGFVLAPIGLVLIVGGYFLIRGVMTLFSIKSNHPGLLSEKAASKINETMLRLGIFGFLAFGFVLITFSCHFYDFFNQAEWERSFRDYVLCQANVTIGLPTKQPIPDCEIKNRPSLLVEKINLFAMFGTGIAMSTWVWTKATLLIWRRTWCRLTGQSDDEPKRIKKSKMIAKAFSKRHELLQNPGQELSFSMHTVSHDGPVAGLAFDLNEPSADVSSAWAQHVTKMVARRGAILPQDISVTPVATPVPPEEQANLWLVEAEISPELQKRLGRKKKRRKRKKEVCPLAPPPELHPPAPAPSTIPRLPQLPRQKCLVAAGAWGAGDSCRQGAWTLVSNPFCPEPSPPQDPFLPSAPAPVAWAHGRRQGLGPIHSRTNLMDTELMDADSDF
Protein smoothened (Mus musculus, UniProt P56726), sequence (P56726 whole entry): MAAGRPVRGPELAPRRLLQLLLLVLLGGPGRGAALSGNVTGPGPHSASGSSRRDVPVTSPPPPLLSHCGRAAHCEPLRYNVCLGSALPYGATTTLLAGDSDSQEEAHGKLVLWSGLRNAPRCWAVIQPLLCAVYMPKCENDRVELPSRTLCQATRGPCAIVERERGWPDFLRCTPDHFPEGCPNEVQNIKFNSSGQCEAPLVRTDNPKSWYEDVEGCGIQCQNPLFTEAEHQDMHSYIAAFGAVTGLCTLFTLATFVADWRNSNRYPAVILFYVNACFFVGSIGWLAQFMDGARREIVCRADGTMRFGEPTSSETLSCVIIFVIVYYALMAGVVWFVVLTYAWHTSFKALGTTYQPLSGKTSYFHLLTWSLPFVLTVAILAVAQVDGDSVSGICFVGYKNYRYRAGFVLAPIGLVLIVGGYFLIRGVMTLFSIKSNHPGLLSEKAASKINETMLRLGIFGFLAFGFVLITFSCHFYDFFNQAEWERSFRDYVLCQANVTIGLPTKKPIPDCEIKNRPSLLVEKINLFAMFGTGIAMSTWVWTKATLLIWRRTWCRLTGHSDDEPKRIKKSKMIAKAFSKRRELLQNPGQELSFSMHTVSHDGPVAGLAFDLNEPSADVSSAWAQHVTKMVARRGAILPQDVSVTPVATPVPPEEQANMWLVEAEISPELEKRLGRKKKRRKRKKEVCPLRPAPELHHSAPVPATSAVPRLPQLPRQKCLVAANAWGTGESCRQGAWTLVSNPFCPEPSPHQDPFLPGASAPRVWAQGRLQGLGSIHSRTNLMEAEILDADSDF
Casein kinase I isoform alpha, sequence (P48729 whole entry, canonical isoform): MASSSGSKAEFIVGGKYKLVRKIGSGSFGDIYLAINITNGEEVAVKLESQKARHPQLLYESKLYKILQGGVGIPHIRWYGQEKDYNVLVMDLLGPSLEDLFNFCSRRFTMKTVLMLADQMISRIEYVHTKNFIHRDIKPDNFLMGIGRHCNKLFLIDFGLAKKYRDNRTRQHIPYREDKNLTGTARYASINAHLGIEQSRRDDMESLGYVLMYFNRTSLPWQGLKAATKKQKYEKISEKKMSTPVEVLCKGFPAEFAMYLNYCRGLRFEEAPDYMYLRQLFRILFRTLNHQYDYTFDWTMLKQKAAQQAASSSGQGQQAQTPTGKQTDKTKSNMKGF

On to `Cc1cc(/C=C/c2ccc3cc(N(C)C)ccc3[n+]2C)c(C)n1-c1ccccc1`, for which the IC50 in data set [1] and in data set [3] was 10 nM each time. The Kd in [2] stood at 1 nM.
For the compound `COc1ccc(Cn2c3ncnc4c(ncn4Cc4ccc(OC)cc4)c-3nc2=O)cc1`, the figures for the IC50 in [4] and in [5] were 2500 nM and 3500 nM, respectively.
For the compound `COc1cc2c3c(c4ccc(O)cc4c2cc1OC)C[C@@H]1CCCN1C3`, in data set [6], the IC50 was 0.013 nM.
Regarding `Cc1sc2c(c1C)C(c1ccc(Cl)cc1)=N[C@@H](CC(=O)OC(C)(C)C)c1nnc(C)n1-2`, the IC50 in data set [7] and in data set [8] was 50 nM each time.
In the case of `COc1cc2c(cc1-c1c(C)noc1C)ncc1[nH]c(=O)n([C@H](C)c3ccccn3)c12`, in data set [9], the IC50 is 30 nM.
`Cc1cnc(-c2cc(N3CCN(C(=O)CCS(C)(=O)=O)CC3)ncc2Cl)c(C)c1`: the IC50 in data set [10] was 5.8 nM; in [11], 2.7 nM.
In the case of `Fc1ccc(CNc2ncnc3c2cnn3CC(Cl)c2ccc(Cl)cc2)cc1` (stereo not given), in [12], the 50% inhibitory concentration (IC50) came to 4890 nM.
Consider `C[C@H](CO)N1C[C@H](C)[C@H](CN(C)S(=O)(=O)c2ccc(Cl)cc2Cl)Oc2c(NC(=O)C3CC3)cccc2C1=O`, for which, in data set [13], the IC50 turned out to be 60 nM.
Regarding `c1ccc([C@@H]2C[C@H]2NC2CCNCC2)cc1`, the IC50 in [14] is 0.05 nM.
As for `C[C@@H]1CN(c2ccc(C(=O)Nc3ccc(Cl)c(NC(=O)c4cccc(Cl)c4)c3)cn2)C[C@H](C)N1`, the half-life in data set [15] is 22 h. In addition, the IC50 in data set [16] amounted to 8 nM; in data set [17], 27 nM.
Consider `COc1cc2c3c(c4ccc(OC(=O)C(C)(C)C)cc4c2cc1OC)C[C@@H]1CCCN1C3`, for which, in [18], the Cmax stood at 37.76 ng/mL.
For the compound `Cn1c(-c2ccccc2C(F)(F)F)nnc1C12CCC(c3noc(C4CC(F)(F)C4)n3)(CC1)CC2`, the IC50 in [19] is 1500 nM; in data set [20] it was 300 nM. The Kp at 24 h in data set [21] turned out to be 0.6.
As to `Cc1cnc(-c2cc(N3CCc4nc(N5CCC(O)CC5)ncc4C3)ccc2Cl)c(C)c1`, the IC50 in [22] is 7.5 nM.
In the case of `CCOc1ccc(-[n+]2cc(-c3ccc(Br)cc3)n3c2CCc2ccccc2-3)cc1`, the IC50 in data set [23] came out at 1420 nM.
With `C=CCn1c(=O)c2cnc(Nc3ccc(N4CCN(C)CC4)cc3)nc2n1-c1cccc(C(C)(C)O)n1` [ADAVOSERTIB], the values for the IC50 in data set [4] and in data set [5] were 150 nM and 232 nM, respectively.
